pIC50, pKi: −log10 of the molar value.
How the values were obtained:
[1] = DRUGMATRIX: Sodium/nucleoside co-transporter radioligand binding (ligand: nitrobenzylthioinosine); type: cell membranes, Cavia porcellus, Dunkin-Hartley, Cerebral cortex, Membrane; details: Not Active = under 50% inhibition at 10 µM
[2] = target: Melanocortin receptor 5 (Homo sapiens, UniProt P33032); type: cell membranes, Membrane; details: hek293; note: in other assays of this panel Not Active means under 50% inhibition at 10 µM
[3] = DRUGMATRIX: Calcium Channel Type L, Benzothiazepine radioligand binding (ligand: [3H] Diltiazem); type: cell membranes, Rattus norvegicus, Wistar, Brain, Membrane; details: Not Active = under 50% inhibition at 10 µM; for pIC50: read-out: IC50; for pKi: read-out: Ki
[4] = target: T1, C-X-C chemokine receptor type 2 (Homo sapiens, UniProt P25025); type: cell membranes, Membrane; details: cho-k1; note: in other assays of this panel Not Active means under 50% inhibition at 10 µM
T1 sequence (P25025 whole entry): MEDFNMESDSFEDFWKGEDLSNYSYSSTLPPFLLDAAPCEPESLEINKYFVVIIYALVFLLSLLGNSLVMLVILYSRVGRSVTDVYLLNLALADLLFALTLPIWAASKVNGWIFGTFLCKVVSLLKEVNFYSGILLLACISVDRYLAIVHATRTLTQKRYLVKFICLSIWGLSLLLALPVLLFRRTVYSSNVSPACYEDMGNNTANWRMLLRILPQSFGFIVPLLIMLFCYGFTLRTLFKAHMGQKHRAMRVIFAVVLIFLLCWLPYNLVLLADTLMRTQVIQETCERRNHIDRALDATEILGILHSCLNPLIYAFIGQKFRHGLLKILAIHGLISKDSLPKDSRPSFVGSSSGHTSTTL

[5] = target: T2, Angiotensin-converting enzyme (Oryctolagus cuniculus, UniProt P12822); type: tissue-based, Lung;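 note: enzymatic inhibition of angiotensin-converting enzyme measured with FAPGG as the substrate; in other assays of this panel Not Active means under 50% inhibition at 10 µM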
T2 sequence (P12822 whole entry): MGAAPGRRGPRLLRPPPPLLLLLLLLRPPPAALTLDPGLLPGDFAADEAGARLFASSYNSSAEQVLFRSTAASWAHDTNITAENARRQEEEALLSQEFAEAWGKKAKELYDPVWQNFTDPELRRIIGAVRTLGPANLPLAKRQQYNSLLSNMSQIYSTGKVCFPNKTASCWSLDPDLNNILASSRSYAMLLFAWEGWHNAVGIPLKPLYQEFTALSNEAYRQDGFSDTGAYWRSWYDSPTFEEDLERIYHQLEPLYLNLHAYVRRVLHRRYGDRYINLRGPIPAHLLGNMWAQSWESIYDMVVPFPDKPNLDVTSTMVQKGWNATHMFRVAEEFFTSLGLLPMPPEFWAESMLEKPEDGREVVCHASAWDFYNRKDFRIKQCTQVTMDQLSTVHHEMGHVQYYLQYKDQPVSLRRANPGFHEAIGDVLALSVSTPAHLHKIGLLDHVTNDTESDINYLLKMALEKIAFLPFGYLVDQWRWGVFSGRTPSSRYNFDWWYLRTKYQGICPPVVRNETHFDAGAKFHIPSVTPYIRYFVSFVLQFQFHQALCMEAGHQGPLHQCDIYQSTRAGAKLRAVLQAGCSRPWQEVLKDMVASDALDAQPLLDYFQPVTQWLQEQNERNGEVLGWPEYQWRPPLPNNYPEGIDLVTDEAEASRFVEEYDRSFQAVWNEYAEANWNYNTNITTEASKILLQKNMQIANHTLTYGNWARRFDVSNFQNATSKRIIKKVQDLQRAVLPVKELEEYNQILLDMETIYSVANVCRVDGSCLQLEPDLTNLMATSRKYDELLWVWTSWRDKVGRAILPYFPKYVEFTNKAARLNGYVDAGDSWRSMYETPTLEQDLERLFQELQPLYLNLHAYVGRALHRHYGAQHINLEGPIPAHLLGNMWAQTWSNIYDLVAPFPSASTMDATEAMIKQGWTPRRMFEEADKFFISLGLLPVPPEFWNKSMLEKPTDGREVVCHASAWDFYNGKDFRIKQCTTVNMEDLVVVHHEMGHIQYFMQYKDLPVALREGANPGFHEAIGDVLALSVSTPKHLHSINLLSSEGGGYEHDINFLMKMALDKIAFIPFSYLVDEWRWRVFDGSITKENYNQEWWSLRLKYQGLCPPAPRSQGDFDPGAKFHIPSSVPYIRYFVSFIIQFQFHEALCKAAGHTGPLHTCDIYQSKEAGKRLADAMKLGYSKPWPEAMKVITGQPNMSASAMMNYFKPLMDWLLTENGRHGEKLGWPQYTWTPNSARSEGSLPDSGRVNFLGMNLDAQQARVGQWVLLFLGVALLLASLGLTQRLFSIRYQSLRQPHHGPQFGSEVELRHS

[6] = target: Melanocortin receptor 3 (Homo sapiens, UniProt P41968); type: cell membranes, Membrane; details: hek293; note: in other assays of this panel Not Active means under 50% inhibition at 10 µM
[7] = target: Vascular endothelial growth factor receptor 1 (Homo sapiens, UniProt P17948); type: cell-based; details: huvec; note: in other assays of this panel Not Active means under 50% inhibition at 10 µM
[8] = target: T3, 5-hydroxytryptamine receptor 1A (Rattus norvegicus, UniProt P19327); type: cell membranes, Membrane; details: cho-k1; note: in other assays of this panel Not Active means under 50% inhibition at 10 µM
T3 sequence (P19327 whole entry): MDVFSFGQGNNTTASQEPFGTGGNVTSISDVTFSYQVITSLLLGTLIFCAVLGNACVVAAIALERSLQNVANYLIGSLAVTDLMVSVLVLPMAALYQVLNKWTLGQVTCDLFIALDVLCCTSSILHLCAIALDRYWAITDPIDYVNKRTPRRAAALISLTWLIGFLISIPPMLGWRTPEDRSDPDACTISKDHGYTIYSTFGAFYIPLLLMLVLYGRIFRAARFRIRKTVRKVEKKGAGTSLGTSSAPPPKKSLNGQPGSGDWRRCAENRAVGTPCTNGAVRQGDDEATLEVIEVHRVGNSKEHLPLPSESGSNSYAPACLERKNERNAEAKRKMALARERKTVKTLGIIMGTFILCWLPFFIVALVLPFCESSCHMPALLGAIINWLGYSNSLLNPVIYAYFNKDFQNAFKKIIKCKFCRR

[9] = target: Cytochrome P450 2D6 (Homo sapiens, UniProt P10635); details: bti-tn-5b1-4; note: in other assays of this panel Not Active means under 50% inhibition at 10 µM
[10] = DRUGMATRIX: Nicotinic Acetylcholine radioligand binding (ligand: [125I] Epibatidine); type: cell membranes, Membrane; details: imr-32; Not Active = under 50% inhibition at 10 µM

Melanocortin receptor 3, sequence (P41968 whole entry): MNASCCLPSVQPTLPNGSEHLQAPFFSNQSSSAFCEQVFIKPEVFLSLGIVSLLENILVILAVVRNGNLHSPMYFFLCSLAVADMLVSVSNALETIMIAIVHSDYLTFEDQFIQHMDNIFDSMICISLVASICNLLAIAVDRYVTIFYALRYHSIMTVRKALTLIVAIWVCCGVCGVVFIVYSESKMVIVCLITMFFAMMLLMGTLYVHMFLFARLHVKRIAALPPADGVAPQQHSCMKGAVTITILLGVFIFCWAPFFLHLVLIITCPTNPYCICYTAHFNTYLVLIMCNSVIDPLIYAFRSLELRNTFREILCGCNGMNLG
Cytochrome P450 2D6, sequence (P10635 whole entry): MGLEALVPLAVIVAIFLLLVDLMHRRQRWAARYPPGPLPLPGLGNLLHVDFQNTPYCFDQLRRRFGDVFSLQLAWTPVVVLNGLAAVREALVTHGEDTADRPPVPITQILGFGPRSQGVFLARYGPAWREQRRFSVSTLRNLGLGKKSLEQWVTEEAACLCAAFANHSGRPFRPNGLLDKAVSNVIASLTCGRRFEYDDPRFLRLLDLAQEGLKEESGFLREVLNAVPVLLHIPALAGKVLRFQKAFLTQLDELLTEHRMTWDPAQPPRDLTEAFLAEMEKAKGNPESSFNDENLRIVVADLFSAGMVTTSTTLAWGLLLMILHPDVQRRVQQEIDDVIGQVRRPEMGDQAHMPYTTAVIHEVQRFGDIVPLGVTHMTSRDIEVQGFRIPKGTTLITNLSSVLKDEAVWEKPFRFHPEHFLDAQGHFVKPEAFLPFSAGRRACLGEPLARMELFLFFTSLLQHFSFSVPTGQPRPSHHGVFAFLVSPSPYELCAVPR
Melanocortin receptor 5, sequence (P33032 whole entry): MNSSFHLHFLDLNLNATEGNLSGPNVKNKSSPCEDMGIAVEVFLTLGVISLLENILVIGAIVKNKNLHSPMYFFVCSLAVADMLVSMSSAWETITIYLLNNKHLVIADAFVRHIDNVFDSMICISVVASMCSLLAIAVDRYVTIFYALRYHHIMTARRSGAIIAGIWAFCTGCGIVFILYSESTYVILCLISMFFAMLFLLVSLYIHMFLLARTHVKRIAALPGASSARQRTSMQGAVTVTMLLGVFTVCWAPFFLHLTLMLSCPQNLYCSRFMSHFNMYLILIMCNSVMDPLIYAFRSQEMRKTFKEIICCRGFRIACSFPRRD
Vascular endothelial growth factor receptor 1, sequence (P17948 whole entry): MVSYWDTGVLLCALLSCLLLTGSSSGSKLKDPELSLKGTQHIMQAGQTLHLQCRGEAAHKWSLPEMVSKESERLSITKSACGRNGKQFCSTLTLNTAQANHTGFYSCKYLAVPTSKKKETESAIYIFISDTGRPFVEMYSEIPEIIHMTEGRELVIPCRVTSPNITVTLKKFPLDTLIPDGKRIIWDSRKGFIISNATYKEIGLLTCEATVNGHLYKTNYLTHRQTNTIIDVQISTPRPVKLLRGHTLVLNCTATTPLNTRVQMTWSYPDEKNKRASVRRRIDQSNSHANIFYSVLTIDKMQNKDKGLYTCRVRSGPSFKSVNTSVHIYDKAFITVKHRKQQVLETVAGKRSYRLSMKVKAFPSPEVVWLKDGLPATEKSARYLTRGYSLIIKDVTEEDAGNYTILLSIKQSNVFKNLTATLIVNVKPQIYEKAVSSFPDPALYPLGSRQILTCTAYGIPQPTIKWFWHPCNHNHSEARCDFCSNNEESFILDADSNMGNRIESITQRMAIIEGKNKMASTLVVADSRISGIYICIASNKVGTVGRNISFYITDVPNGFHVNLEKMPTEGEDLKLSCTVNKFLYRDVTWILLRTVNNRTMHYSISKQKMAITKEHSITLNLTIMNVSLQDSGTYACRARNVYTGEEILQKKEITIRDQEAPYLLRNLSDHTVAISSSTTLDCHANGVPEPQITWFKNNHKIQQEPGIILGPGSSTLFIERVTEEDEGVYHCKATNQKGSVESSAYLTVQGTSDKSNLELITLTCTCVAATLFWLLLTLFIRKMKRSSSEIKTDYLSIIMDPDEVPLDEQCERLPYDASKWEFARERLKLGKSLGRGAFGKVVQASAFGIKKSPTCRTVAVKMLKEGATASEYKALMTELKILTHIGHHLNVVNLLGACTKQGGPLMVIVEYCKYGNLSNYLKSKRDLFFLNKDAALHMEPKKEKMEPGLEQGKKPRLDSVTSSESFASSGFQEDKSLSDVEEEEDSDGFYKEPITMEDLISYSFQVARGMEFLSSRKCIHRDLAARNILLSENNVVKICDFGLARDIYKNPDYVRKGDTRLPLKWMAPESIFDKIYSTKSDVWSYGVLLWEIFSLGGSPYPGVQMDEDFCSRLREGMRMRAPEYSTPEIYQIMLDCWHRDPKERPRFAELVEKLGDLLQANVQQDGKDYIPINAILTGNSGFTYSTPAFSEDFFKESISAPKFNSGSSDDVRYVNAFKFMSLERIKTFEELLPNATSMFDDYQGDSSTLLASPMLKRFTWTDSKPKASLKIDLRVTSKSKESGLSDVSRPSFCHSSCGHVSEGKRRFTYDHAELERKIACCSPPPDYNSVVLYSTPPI

Structure (SMILES)	IC50 [1]	Ki [1]	IC50 [2]	IC50 [3]	Ki [3]	IC50 [4]	IC50 [5]	IC50 [6]	IC50 [7]	IC50 [8]	IC50 [9]	Ki [9]	IC50 [10]	Ki [10]	pIC50 [3]	pKi [3]
CO[C@H]1/C=C/O[C@@]2(C)Oc3c(C)c(O)c4c(c3C2=O)C2=NC3(CCN(CC(C)C)CC3)NC2=C(NC(=O)/C(C)=C\C=C\[C@H](C)[C@H](O)[C@@H](C)[C@@H](O)[C@@H](C)[C@H](OC(C)=O)[C@@H]1C)C4=O [RIFABUTIN]	Not Active	Not Active	Not Active	Not Active	Not Active	Not Active	Not Active	Not Active	Not Active	Not Active	Not Active	Not Active	Not Active	Not Active		
CC(C)CC(N(C)C)C1(c2ccc(Cl)cc2)CCC1 (configuration not stated) [SIBUTRAMINE]	Not Active	Not Active	Not Active			Not Active	Not Active	Not Active	Not Active	Not Active	Not Active	Not Active	Not Active	Not Active	6.09	6.14
[H]/N=C(/N)N[C@H]1[C@H](O)[C@@H](O)[C@H](O[C@@H]2O[C@@H](C)[C@](O)(C=O)[C@H]2O[C@@H]2O[C@@H](CO)[C@H](O)[C@@H](O)[C@@H]2NC)[C@@H](N/C(N)=N\[H])[C@@H]1O [STREPTOMYCIN]	Not Active	Not Active	Not Active	Not Active	Not Active	Not Active	Not Active	Not Active	Not Active	Not Active	Not Active	Not Active	Not Active	Not Active		
COc1cc(NS(=O)(=O)c2ccc(N)cc2)nc(OC)n1 [SULFADIMETHOXINE]	Not Active	Not Active	Not Active	Not Active	Not Active	Not Active	Not Active	Not Active	Not Active	Not Active	Not Active	Not Active	Not Active	Not Active		
Cc1cc(C)nc(NS(=O)(=O)c2ccc(N)cc2)n1 [SULFAMETHAZINE]	Not Active	Not Active	Not Active	Not Active	Not Active	Not Active	Not Active	Not Active	Not Active	Not Active	Not Active	Not Active	Not Active	Not Active		
C[C@]1(Cn2ccnn2)[C@H](C(=O)O)N2C(=O)C[C@H]2S1(=O)=O [TAZOBACTAM]	Not Active	Not Active	Not Active	Not Active	Not Active	Not Active	Not Active	Not Active	Not Active	Not Active	Not Active	Not Active	Not Active	Not Active		
CN1C(C(=O)Nc2ccccn2)=C(O)c2sccc2S1(=O)=O [TENOXICAM]	Not Active	Not Active	Not Active	Not Active	Not Active	Not Active	Not Active	Not Active	Not Active	Not Active	Not Active	Not Active	Not Active	Not Active		
CC(C)(C)c1ccc(C(O)CCCN2CCC(C(O)(c3ccccc3)c3ccccc3)CC2)cc1 (configuration not stated) [TERFENADINE]	Not Active	Not Active	Not Active			Not Active	Not Active	Not Active	Not Active	Not Active	Not Active	Not Active	Not Active	Not Active	6.65	6.70
O=C1CCC(N2C(=O)c3ccccc3C2=O)C(=O)N1 (configuration not stated) [THALIDOMIDE]	Not Active	Not Active	Not Active	Not Active	Not Active	Not Active	Not Active	Not Active	Not Active	Not Active	Not Active	Not Active	Not Active	Not Active		
Cc1cccc(Nc2ccncc2S(=O)(=O)NC(=O)NC(C)C)c1 [TORSEMIDE]	Not Active	Not Active	Not Active	Not Active	Not Active	Not Active	Not Active	Not Active	Not Active	Not Active	Not Active	Not Active	Not Active	Not Active		
CC(C)C[C@H](NC(=O)[C@@H](O)[C@H](N)Cc1ccccc1)C(=O)O [UBENIMEX]	Not Active	Not Active	Not Active	Not Active	Not Active	Not Active	Not Active	Not Active	Not Active	Not Active	Not Active	Not Active	Not Active	Not Active		
Cc1onc(-c2ccccc2)c1-c1ccc(S(N)(=O)=O)cc1 [VALDECOXIB]	Not Active	Not Active	Not Active	Not Active	Not Active	Not Active	Not Active	Not Active	Not Active	Not Active	Not Active	Not Active	Not Active	Not Active		
CC[C@]1(O)C[C@@H]2CN(CCc3c([nH]c4ccccc34)[C@@](C(=O)OC)(c3cc4c(cc3OC)N(C)[C@H]3[C@@](O)(C(=O)OC)[C@H](OC(C)=O)[C@]5(CC)C=CCN6CC[C@]43[C@@H]65)C2)C1 [VINBLASTINE]	Not Active	Not Active	Not Active	Not Active	Not Active	Not Active	Not Active	Not Active	Not Active	Not Active	Not Active	Not Active	Not Active	Not Active		
